# Laboratory results: patent US20240254435A1, “VARIANT BACTERIAL STRAINS AND PROCESSES FOR PROTEIN OR BIOMASS PRODUCTION” (Solar Foods Oy, priority 2021, published 2024)
# What was measured:
# [1] = Antibiotic susceptibility (MIC), broth microdilution / agar dilution, CLSI M07; conditions: for Minimum Inhibitory Concentration (MIC): VTT-E-193585, 48 h ± 1 h, aerobic, +35±2° C., cation-adjusted Mueller Hinton Broth, fosfomycin by agar dilution; for MIC values for VTT-E-193585 compared to E. coli ATCC 25922: comparison in words
# [2] = Antibiotic susceptibility (MIC), quality control strain; conditions: E. coli ATCC 25922, 18 h ± 2 h, aerobic, +35±2° C.
Compound,Minimum Inhibitory Concentration (MIC) [1] [µg/mL],MIC values for VTT-E-193585 compared to E. coli ATCC 25922 [1],Minimum Inhibitory Concentration (MIC) [2] [µg/mL]
CC1(C)S[C@@H]2[C@H](NC(=O)[C@H](N)c3ccccc3)C(=O)N2[C@H]1C(=O)O [Ampicillin],16,higher,8
C[C@@H]1O[C@@H]1P(=O)(O)O [Fosfomycin],32,higher,0.5
[H]/N=C(/N)N[C@H]1[C@H](O)[C@@H](O)[C@H](O[C@@H]2O[C@@H](C)[C@](O)(C=O)[C@H]2O[C@@H]2O[C@@H](CO)[C@H](O)[C@@H](O)[C@@H]2NC)[C@@H](N/C(N)=N\[H])[C@@H]1O [Streptomycin],0.5,lower or comparable,4
Colistin,4,higher,2
Gentamicin,0.5,lower or comparable,0.5
